The assay deals with Hsp90. The experiment in a line: SPR. In kind it is binding, Homo sapiens.

Usually Kd stands for a measure of binding affinity in units of concentration.

Turning to `CC(C)=CCCC1(C)C=Cc2c(c(C)cc3c2[nH]c2cc(O)ccc23)O1` (stereo not shown) [mahanine], the Kd was 4.99 µM.

The values above are taken from paper PMC3910101 (International journal of cancer. Journal international du …, 2012).
